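Test compounds were applied to cells in 96-well plates for 48 hours at 5 doses. TGI: total growth inhibition.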
Tests used:
Test in all cases: DTP human tumour cell line panel, 48 h
786-0 renal = test system: 786-0 renal
A498 renal = test system: A498 renal
A549 NSCLC = test system: A549 NSCLC
ACHN renal = test system: ACHN renal
BT-549 breast = test system: BT-549 breast
CAKI-1 renal = test system: CAKI-1 renal
CCRF-CEM leukemia = test system: CCRF-CEM leukemia
COLO 205 colon = test system: COLO 205 colon
DU-145 prostate = test system: DU-145 prostate
EKVX NSCLC = test system: EKVX NSCLC
HCC-2998 colon = test system: HCC-2998 colon
HCT-116 colon = test system: HCT-116 colon
HCT-15 colon = test system: HCT-15 colon
HL-60(TB) leukemia = test system: HL-60(TB) leukemia
HOP-62 NSCLC = test system: HOP-62 NSCLC
HOP-92 NSCLC = test system: HOP-92 NSCLC
HT29 colon = test system: HT29 colon
IGROV1 ovarian = test system: IGROV1 ovarian
K-562 leukemia = test system: K-562 leukemia
KM12 colon = test system: KM12 colon
LOX IMVI melanoma = test system: LOX IMVI melanoma
M14 melanoma = test system: M14 melanoma
MALME-3M melanoma = test system: MALME-3M melanoma
MCF7 breast = test system: MCF7 breast
MDA-MB-231 breast = test system: MDA-MB-231 breast
MDA-MB-435 = test system: MDA-MB-435
MDA-N = test system: MDA-N
MOLT-4 leukemia = test system: MOLT-4 leukemia
NCI-H226 lung = test system: NCI-H226 lung
NCI-H23 lung = test system: NCI-H23 lung
NCI-H460 lung = test system: NCI-H460 lung
NCI-H522 lung = test system: NCI-H522 lung
NCI/ADR-RES ovarian = test system: NCI/ADR-RES ovarian
OVCAR-3 ovarian = test system: OVCAR-3 ovarian
OVCAR-4 ovarian = test system: OVCAR-4 ovarian
OVCAR-5 ovarian = test system: OVCAR-5 ovarian
OVCAR-8 ovarian = test system: OVCAR-8 ovarian
PC-3 prostate = test system: PC-3 prostate
RPMI-8226 leukemia = test system: RPMI-8226 leukemia
RXF 393 renal = test system: RXF 393 renal
SF-268 CNS = test system: SF-268 CNS
SF-295 CNS = test system: SF-295 CNS
SF-539 CNS = test system: SF-539 CNS
SK-MEL-2 melanoma = test system: SK-MEL-2 melanoma
SK-MEL-28 melanoma = test system: SK-MEL-28 melanoma
SK-MEL-5 melanoma = test system: SK-MEL-5 melanoma
SK-OV-3 ovarian = test system: SK-OV-3 ovarian
SN12C renal = test system: SN12C renal
SNB-19 CNS = test system: SNB-19 CNS
SNB-75 CNS = test system: SNB-75 CNS
SR leukemia = test system: SR leukemia
SW-620 colon = test system: SW-620 colon
T-47D breast = test system: T-47D breast
TK-10 renal = test system: TK-10 renal
U251 CNS = test system: U251 CNS
UACC-257 melanoma = test system: UACC-257 melanoma
UACC-62 melanoma = test system: UACC-62 melanoma
UO-31 renal = test system: UO-31 renal
HS 578T breast = test system: HS 578T breast

## CCCCCC(/C=C/C1CCC(=O)C1)OCOCCOC (centres undefined)
786-0 renal
  TGI: 42.5 µM
A498 renal
  TGI: 99.3 µM
A549 NSCLC
  TGI: > 100 µM
ACHN renal
  TGI: 58.6 µM
BT-549 breast
  TGI: > 71 µM
CAKI-1 renal
  TGI: > 76.9 µM
CCRF-CEM leukemia
  TGI: > 92.2 µM
COLO 205 colon
  TGI: > 100 µM
DU-145 prostate
  TGI: > 100 µM
EKVX NSCLC
  TGI: > 100 µM
HCC-2998 colon
  TGI: > 100 µM
HCT-116 colon
  TGI: > 73.6 µM
HCT-15 colon
  TGI: > 100 µM
HL-60(TB) leukemia
  TGI: > 100 µM
HOP-62 NSCLC
  TGI: > 100 µM
HOP-92 NSCLC
  TGI: 84.5 µM
HT29 colon
  TGI: 67.5 µM
IGROV1 ovarian
  TGI: > 100 µM
K-562 leukemia
  TGI: > 86.7 µM
KM12 colon
  TGI: > 100 µM
LOX IMVI melanoma
  TGI: > 71 µM
M14 melanoma
  TGI: > 100 µM
MALME-3M melanoma
  TGI: > 100 µM
MCF7 breast
  TGI: > 100 µM
MDA-MB-231 breast
  TGI: > 100 µM
MDA-MB-435
  TGI: > 100 µM
MDA-N
  TGI: > 100 µM
MOLT-4 leukemia
  TGI: 44.5 µM
NCI-H226 lung
  TGI: > 100 µM
NCI-H23 lung
  TGI: > 100 µM
NCI-H460 lung
  TGI: > 100 µM
NCI-H522 lung
  TGI: 36 µM
NCI/ADR-RES ovarian
  TGI: 99.2 µM
OVCAR-3 ovarian
  TGI: > 100 µM
OVCAR-4 ovarian
  TGI: > 100 µM
OVCAR-5 ovarian
  TGI: > 100 µM
OVCAR-8 ovarian
  TGI: > 95.4 µM
PC-3 prostate
  TGI: > 100 µM
RPMI-8226 leukemia
  TGI: 60.3 µM
RXF 393 renal
  TGI: > 100 µM
SF-268 CNS
  TGI: > 71.7 µM
SF-295 CNS
  TGI: > 100 µM
SF-539 CNS
  TGI: 46.3 µM
SK-MEL-2 melanoma
  TGI: > 100 µM
SK-MEL-28 melanoma
  TGI: > 100 µM
SK-MEL-5 melanoma
  TGI: > 100 µM
SK-OV-3 ovarian
  TGI: > 100 µM
SN12C renal
  TGI: > 100 µM
SNB-19 CNS
  TGI: > 100 µM
SNB-75 CNS
  TGI: 57.8 µM
SR leukemia
  TGI: > 81.8 µM
SW-620 colon
  TGI: > 81.8 µM
T-47D breast
  TGI: > 100 µM
TK-10 renal
  TGI: > 100 µM
U251 CNS
  TGI: > 100 µM
UACC-257 melanoma
  TGI: > 66.7 µM
UACC-62 melanoma
  TGI: > 100 µM
UO-31 renal
  TGI: 58.5 µM

## C=C1C[C@@H](O)[C@@H](Br)C(C)(C)[C@@]12C=CC(O)(CBr)CC2 (some centres undefined)
786-0 renal
  TGI: > 100 µM
A549 NSCLC
  TGI: > 100 µM
ACHN renal
  TGI: > 100 µM
BT-549 breast
  TGI: 83.7 µM
CAKI-1 renal
  TGI: > 100 µM
CCRF-CEM leukemia
  TGI: 64.2 µM
DU-145 prostate
  TGI: > 100 µM
EKVX NSCLC
  TGI: 79.2 µM
HCT-116 colon
  TGI: > 100 µM
HCT-15 colon
  TGI: > 100 µM
HL-60(TB) leukemia
  TGI: > 100 µM
HOP-62 NSCLC
  TGI: > 100 µM
HOP-92 NSCLC
  TGI: 61 µM
HS 578T breast
  TGI: > 100 µM
HT29 colon
  TGI: > 100 µM
IGROV1 ovarian
  TGI: > 100 µM
K-562 leukemia
  TGI: > 100 µM
KM12 colon
  TGI: 15.1 µM
LOX IMVI melanoma
  TGI: > 100 µM
M14 melanoma
  TGI: > 100 µM
MALME-3M melanoma
  TGI: > 100 µM
MCF7 breast
  TGI: > 100 µM
MDA-MB-231 breast
  TGI: 93.5 µM
MDA-MB-435
  TGI: > 100 µM
MDA-N
  TGI: > 100 µM
MOLT-4 leukemia
  TGI: 76.2 µM
NCI-H226 lung
  TGI: > 100 µM
NCI-H23 lung
  TGI: > 100 µM
NCI-H460 lung
  TGI: > 100 µM
NCI-H522 lung
  TGI: > 100 µM
OVCAR-3 ovarian
  TGI: > 100 µM
OVCAR-4 ovarian
  TGI: > 100 µM
OVCAR-5 ovarian
  TGI: > 100 µM
OVCAR-8 ovarian
  TGI: > 100 µM
PC-3 prostate
  TGI: 9.72 µM
RPMI-8226 leukemia
  TGI: 70.7 µM
RXF 393 renal
  TGI: > 100 µM
SF-268 CNS
  TGI: > 100 µM
SF-295 CNS
  TGI: > 100 µM
SK-MEL-2 melanoma
  TGI: > 100 µM
SK-MEL-28 melanoma
  TGI: > 100 µM
SK-MEL-5 melanoma
  TGI: > 100 µM
SN12C renal
  TGI: > 100 µM
SNB-19 CNS
  TGI: > 100 µM
SR leukemia
  TGI: 77.6 µM
SW-620 colon
  TGI: > 100 µM
T-47D breast
  TGI: > 100 µM
TK-10 renal
  TGI: > 100 µM
U251 CNS
  TGI: > 100 µM
UACC-257 melanoma
  TGI: > 100 µM
UACC-62 melanoma
  TGI: > 100 µM
UO-31 renal
  TGI: > 100 µM

## CC(NC(=O)C(Cc1ccc(OC(=O)c2ccccc2)cc1)NC(=O)OC(C)(C)C)C(=O)NCC(=O)NC(Cc1ccccc1)NC(=O)OCc1ccccc1 (centres undefined)
786-0 renal
  TGI: > 100 µM
A498 renal
  TGI: > 100 µM
A549 NSCLC
  TGI: > 100 µM
ACHN renal
  TGI: > 100 µM
BT-549 breast
  TGI: > 100 µM
CAKI-1 renal
  TGI: > 100 µM
COLO 205 colon
  TGI: > 100 µM
DU-145 prostate
  TGI: > 100 µM
EKVX NSCLC
  TGI: > 100 µM
HCT-116 colon
  TGI: > 100 µM
HCT-15 colon
  TGI: > 100 µM
HL-60(TB) leukemia
  TGI: > 100 µM
HOP-62 NSCLC
  TGI: > 100 µM
HOP-92 NSCLC
  TGI: > 100 µM
HS 578T breast
  TGI: > 100 µM
HT29 colon
  TGI: > 100 µM
IGROV1 ovarian
  TGI: > 100 µM
K-562 leukemia
  TGI: > 100 µM
KM12 colon
  TGI: > 100 µM
LOX IMVI melanoma
  TGI: > 100 µM
M14 melanoma
  TGI: > 100 µM
MALME-3M melanoma
  TGI: > 100 µM
MCF7 breast
  TGI: > 100 µM
MDA-MB-231 breast
  TGI: > 100 µM
MDA-MB-435
  TGI: > 100 µM
MDA-N
  TGI: > 100 µM
MOLT-4 leukemia
  TGI: > 100 µM
NCI-H226 lung
  TGI: > 100 µM
NCI-H23 lung
  TGI: > 100 µM
NCI-H460 lung
  TGI: > 100 µM
NCI-H522 lung
  TGI: > 100 µM
OVCAR-3 ovarian
  TGI: > 100 µM
OVCAR-4 ovarian
  TGI: > 100 µM
OVCAR-5 ovarian
  TGI: > 100 µM
OVCAR-8 ovarian
  TGI: > 100 µM
PC-3 prostate
  TGI: > 100 µM
RPMI-8226 leukemia
  TGI: > 100 µM
RXF 393 renal
  TGI: > 100 µM
SF-268 CNS
  TGI: > 100 µM
SF-295 CNS
  TGI: > 100 µM
SF-539 CNS
  TGI: > 100 µM
SK-MEL-28 melanoma
  TGI: > 100 µM
SK-MEL-5 melanoma
  TGI: > 100 µM
SK-OV-3 ovarian
  TGI: > 100 µM
SN12C renal
  TGI: > 100 µM
SNB-19 CNS
  TGI: > 100 µM
SNB-75 CNS
  TGI: > 100 µM
SR leukemia
  TGI: > 100 µM
SW-620 colon
  TGI: > 100 µM
T-47D breast
  TGI: > 100 µM
TK-10 renal
  TGI: > 100 µM
U251 CNS
  TGI: > 100 µM
UACC-62 melanoma
  TGI: > 100 µM
UO-31 renal
  TGI: > 100 µM

Source: PubChem BioAssay (NCI)
